Assay results from patent publication US9533986B2, “Bicyclic dihydropyridone kinase inhibitors” (PORTOLA PHARMACEUTICALS, INC., priority 2012, dated 2017).

Target: T1, full length active recombinant SYK enzyme (Homo sapiens, UniProt P43405)
T1 construct: full length active recombinant SYK enzyme (Millipore, Calif.); purchased Millipore
Experiment: Inhibition of Syk tyrosine phosphorylation activity (LANCE TR-FRET kinase assay)
Format: biochemical
Details: 1 nM active SYK enzyme, 550 nM SYK-substrate, 100 μM ATP, 1 hour at room temperature
Procedure: The in vitro and in vivo human JAK/Syk activities of the inventive compounds can be determined by various procedures known in the art, such as a test for their ability to inhibit the activity of human plasma JAK/Syk. […] The IC50 value is the concentration of the compound required to provide 50% inhibition of human JAK/Syk proteolytic activity.
An in vitro assay for detecting and measuring inhibition activity against Syk is as follows.
SYK tyrosine phosphorylation activity is measured using the LANCE™ Technology developed by Perkin Elmer Life and Analytical Sciences (Boston, Mass.). LANCE™ refers to homogeneous time resolved fluorometry applications using techniques such as time-resolved fluorescence resonance energy transfer assay (TR-FRET) (see generally for procedures in Perkin Elmer Application Note—How to Optimize a Tyrosine Kinase Assay Using Time Resolved Fluorescence-Based LANCE Detection, wwww.perkinelmer.com/lifesciences). The assay principle involves detection of a phosphorylated substrate using energy transfer from a phosphospecific europium-labeled antibody to streptavidin-allophycocyanin as an acceptor.
Molecules are reconstituted in 30% DMSO and serially diluted 1:3 with the final dilution containing DMSO in the absence of the candidate molecule. The final DMSO concentration in the assay is 3%. Kinase assays are performed as a two part reaction. The first reaction is a kinase reaction which comprises a candidate molecule, full length active recombinant SYK enzyme (Millipore, Calif.), and biotin-DEEDYESP-OH, a biotin-labeled SYK-specific substrate. The second reaction involves termination of the kinase reaction and the simultaneous addition of the detection reagents—europium-labeled anti-phosphotyrosine reagent (Eu-W1024-PY100, Perkin Elmer, Boston, Mass.) and Streptavidin-Allophycocyanin detection reagent (SA-APC, Prozyme, CA). The kinase reaction is performed in a black U-bottom 96-well microtitre plate. The final reaction volume is 50 μL and contains a final concentration of 1 nM active SYK enzyme, 550 nM SYK-substrate, and 100 μM ATP diluted in a buffer containing 50 mM Tris pH 7.5, 5 mM MgCl2, and 1 mM DTT. The reaction is allowed to proceed for 1 hour at room temperature. The quench buffer contains 100 mM Tris pH 7.5, 300 mM NaCl2, 20 mM EDTA, 0.02% Brij35, and 0.5% BSA. […] Detection of the phosphorylated substrate in the absence and presence of inhibitors is measured in the TR-FRET instrument, Analyst HT (Molecular Probes, Sunnyvale, Calif.) and the condition for measurements are set using CriterionHost Release 2.0 (Molecular Probes, Sunnyvale, Calif.). […] Inhibition of SYK-tyrosine kinase activity is calculated as the maximum response observed in the presence of inhibitor, compared to that in the absence of inhibitor. […]

**Q.** Which IC50 does the source give for `COc1ccc(Nc2nc(N[C@@H]3CCCC[C@@H]3N)nc3c2C(=O)NCC3)cc1C(F)(F)F` [Example 7, 2-(((1R,2S)-2-aminocyclohexyl)amino)-4-((4-methoxy-3-(trifluoromethyl)phenyl)amino)-7,8-dihydropyrido[4,3-d]pyrimidin-5(6H)-one] here?
**A.** The IC50 was greater than 250 nM.

**Q.** Which IC50 does the source give for `N[C@H]1CCCC[C@H]1Nc1nc2c(c(Nc3cccc(-n4nccn4)c3)n1)C(=O)NCC2` [Example 6, 4-((3-(2H-1,2,3-triazol-2-yl)phenyl)amino)-2-(((1R,2S)-2-aminocyclohexyl)amino)-7,8-dihydropyrido[4,3-d]pyrimidin-5(6H)-one] here?
**A.** Its IC50 is no more than 100 nM.

**Q.** With `Cc1cccc(Nc2nc(N[C@@H]3CCCC[C@@H]3N)nc3c2C(=O)NCC3)c1` [Example 1, 2-(((1R,2S)-2-aminocyclohexyl)amino)-4-(m-tolylamino)-7,8-dihydropyrido[4,3-d]pyrimidin-5(6H)-one] as the compound, how does the IC50 read?
**A.** The IC50 was no more than 100 nM.

**Q.** Which IC50 does the source give for `N[C@H]1CCCC[C@H]1Nc1nc2c(c(Nc3cccc(-c4ncccn4)c3)n1)C(=O)NCC2` [Example 4, 2-(((1R,2S)-2-aminocyclohexyl)amino)-4-((3-(pyrimidin-2-yl)phenyl)amino)-7,8-dihydropyrido[4,3-d]pyrimidin-5(6H)-one] here?
**A.** The IC50 was no more than 250 nM.
